The record followed here is PubChem BioAssay (NCI).

Some test systems named below: T-47D breast; MOLT-4 leukemia; NCI/ADR-RES ovarian; MDA-MB-435; OVCAR-5 ovarian; HL-60(TB) leukemia; HS 578T breast; SF-295 CNS; CCRF-CEM leukemia; HCT-116 colon.
What all share (assay): NCI anticancer screen, dose series, 48 h

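Five concentrations, 48 hours, 96-well plates. GI50 marks 50% less growth. Definition used: TGI = concentration required for complete inhibition of growth.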

Turning to `CC(=O)Nc1ccc2c(c1)C(c1ccccc1Cl)=Nc1c(n[nH]c1C)N2`, the GI50 in the assay with T-47D breast is 8.38 µM; with MOLT-4 leukemia it was 9.75 µM; in the assay on NCI/ADR-RES ovarian, over 25 µM; with MDA-MB-435 it was over 20 µM; in the assay on OVCAR-5 ovarian, 24.6 µM; in the assay with HL-60(TB) leukemia, 14.8 µM. The GI50 is 0.928 µM in the assay with HS 578T breast, 8.22 µM with SF-295 CNS, 12.2 µM in the assay with CCRF-CEM leukemia and 2.49 µM in the assay with HCT-116 colon. Moreover, the TGI in the assay on T-47D breast was over 23.6 µM; with MOLT-4 leukemia, over 25 µM; with NCI/ADR-RES ovarian, over 25 µM; in the assay with MDA-MB-435 it was over 25 µM; with OVCAR-5 ovarian it was over 25 µM; in the assay with HL-60(TB) leukemia, over 25 µM. For the same compound, the TGI in the assay on HS 578T breast was over 11.7 µM; in the assay with SF-295 CNS it was over 25 µM; in the assay on CCRF-CEM leukemia, over 25 µM; in the assay on HCT-116 colon it was over 25 µM.

For `CC(=O)c1ccc2c(c1)c1cc(C(C)=O)ccc1n2CCNC(C)C`, the GI50 with T-47D breast was 0.523 µM; with MOLT-4 leukemia, 0.337 µM; in the assay on NCI/ADR-RES ovarian, 0.371 µM; in the assay on MDA-MB-435, 0.364 µM; in the assay on OVCAR-5 ovarian it was 0.462 µM; in the assay with HL-60(TB) leukemia it was 0.362 µM. For the same compound, the GI50 in the assay with HS 578T breast is 0.828 µM; in the assay with SF-295 CNS, 0.426 µM; with CCRF-CEM leukemia, 0.455 µM; in the assay with HCT-116 colon, 0.251 µM. The TGI is 13 µM with T-47D breast; 1.79 µM in the assay on MOLT-4 leukemia; 8.09 µM in the assay on NCI/ADR-RES ovarian; 1.44 µM in the assay with MDA-MB-435; 5.56 µM in the assay with OVCAR-5 ovarian; 2.67 µM in the assay with HL-60(TB) leukemia. The TGI with HS 578T breast was determined as 4.77 µM; in the assay with SF-295 CNS, 2.62 µM; with CCRF-CEM leukemia, 2.65 µM; with HCT-116 colon it was 3.69 µM.

As to `CCN1C/C(=C\c2cc(OC)c(OC)cc2OC)C(=O)/C(=C/c2cc(OC)c(OC)cc2OC)C1`, the GI50 was 2.96 µM with T-47D breast; 4.1 µM in the assay on MOLT-4 leukemia; 3.12 µM in the assay on NCI/ADR-RES ovarian; 2.07 µM in the assay with MDA-MB-435; 3.2 µM in the assay with OVCAR-5 ovarian; 2.84 µM with HL-60(TB) leukemia. Moreover, the GI50 in the assay on HS 578T breast was 3.34 µM; in the assay with SF-295 CNS, 2.3 µM; in the assay with CCRF-CEM leukemia it was 2.96 µM; in the assay on HCT-116 colon, 1.84 µM. The TGI with T-47D breast was over 100 µM; in the assay with MOLT-4 leukemia it was 81.6 µM; in the assay on NCI/ADR-RES ovarian, over 100 µM; in the assay on MDA-MB-435 it was 4.3 µM; with OVCAR-5 ovarian, over 100 µM; in the assay on HL-60(TB) leukemia, 8.26 µM. For the same compound, the TGI in the assay on HS 578T breast is 79.5 µM; in the assay on SF-295 CNS, 4.89 µM; in the assay on CCRF-CEM leukemia, over 100 µM; in the assay on HCT-116 colon, 3.84 µM.

For the compound `C=C1CC[C@@H]2[C@](C)(COC(C)=O)[C@H](OC(C)=O)CC[C@@]2(C)[C@@H]1CC(Nc1ccc(S(=O)(=O)NC(C)=O)cc1)C1=CCOC1=O` (stereo not given in full), the GI50 in the assay with T-47D breast is 2.46 µM; in the assay with MOLT-4 leukemia it was 2.2 µM; with NCI/ADR-RES ovarian it was 2.51 µM; in the assay on MDA-MB-435 it was 2.79 µM; in the assay with OVCAR-5 ovarian, 4.82 µM; with HL-60(TB) leukemia it was 2.45 µM. Also, the GI50 in the assay with HS 578T breast was 8.45 µM; with SF-295 CNS, 11.5 µM; in the assay on CCRF-CEM leukemia, 1.93 µM; in the assay with HCT-116 colon, 1.67 µM. Further, the TGI with T-47D breast was 12 µM; in the assay with MOLT-4 leukemia, 6.66 µM; with NCI/ADR-RES ovarian it was 9.14 µM; in the assay on MDA-MB-435 it was 10.6 µM; with OVCAR-5 ovarian it was 15.4 µM; in the assay on HL-60(TB) leukemia, 12 µM. The TGI in the assay with HS 578T breast amounted to 38.8 µM; in the assay on SF-295 CNS, 22 µM; with CCRF-CEM leukemia, 6.26 µM; with HCT-116 colon, 3.66 µM.

In the case of `O=C(Cc1ccc(/C=C/C(=O)c2ncc[nH]2)cc1)Nc1ccc(F)cc1`, the GI50 was 3.33 µM in the assay on T-47D breast; 5.74 µM with MOLT-4 leukemia; 7.18 µM with NCI/ADR-RES ovarian; 4.07 µM in the assay with MDA-MB-435; 2.6 µM with OVCAR-5 ovarian; 1.66 µM in the assay with HL-60(TB) leukemia. Besides, the GI50 in the assay on HS 578T breast was 23.3 µM; in the assay with SF-295 CNS, 4.74 µM; in the assay on CCRF-CEM leukemia, 1.68 µM; with HCT-116 colon, 1.89 µM. Also, the TGI with T-47D breast was 24.6 µM; with MOLT-4 leukemia, over 33.3 µM; in the assay on NCI/ADR-RES ovarian, over 33.3 µM; in the assay with MDA-MB-435, 20.1 µM; in the assay with OVCAR-5 ovarian, 9.81 µM; in the assay with HL-60(TB) leukemia it was 10.6 µM. Also, the TGI in the assay with HS 578T breast is over 33.3 µM; in the assay with SF-295 CNS, 11.5 µM; in the assay with CCRF-CEM leukemia it was over 33.3 µM; in the assay with HCT-116 colon it was 6.92 µM.

In the case of `O=c1c2c(=NCCN3CCCC3)cc3c(=O)n(CCCN4CCOCC4)c(=O)c4c(-c5ccc(CN6CCCC6)cc5)cc(c(O)n1CCCN1CCOCC1)c2c4-3`, the GI50 in the assay on T-47D breast is 0.1 µM; with MOLT-4 leukemia it was under 0.0206 µM; in the assay on NCI/ADR-RES ovarian it was 0.364 µM; with MDA-MB-435 it was 0.0395 µM; in the assay on OVCAR-5 ovarian, 0.0847 µM; in the assay on HL-60(TB) leukemia, 0.231 µM. In addition, the GI50 in the assay on HS 578T breast was 0.132 µM; in the assay on SF-295 CNS, 0.164 µM; in the assay with CCRF-CEM leukemia, 0.0673 µM; in the assay with HCT-116 colon it was 0.0101 µM. Besides, the TGI turned out to be 0.897 µM in the assay on T-47D breast; 5.37 µM in the assay on MOLT-4 leukemia; 9.65 µM in the assay with NCI/ADR-RES ovarian; 0.147 µM with MDA-MB-435; 0.724 µM in the assay with OVCAR-5 ovarian; 1.64 µM with HL-60(TB) leukemia. Also, the TGI worked out at 0.57 µM with HS 578T breast, 0.796 µM with SF-295 CNS, 1.05 µM in the assay on CCRF-CEM leukemia and 0.209 µM in the assay on HCT-116 colon.

Take `CCN1C(=S)N(c2ccccc2)C2NC(=S)N(/N=C/C=C/c3ccccc3OC)C21` (stereo not given): the GI50 in the assay with T-47D breast is over 100 µM; in the assay with MOLT-4 leukemia it was 0.548 µM; with NCI/ADR-RES ovarian, 0.307 µM; in the assay with MDA-MB-435, 0.0775 µM; with OVCAR-5 ovarian it was 0.69 µM; with HL-60(TB) leukemia it was 0.245 µM. The GI50 is 0.359 µM in the assay with HS 578T breast, 0.263 µM in the assay on SF-295 CNS, 0.362 µM in the assay on CCRF-CEM leukemia and 0.36 µM in the assay on HCT-116 colon. Also, the TGI with T-47D breast is over 100 µM; in the assay with MOLT-4 leukemia, over 100 µM; in the assay with NCI/ADR-RES ovarian, over 100 µM; in the assay with MDA-MB-435 it was 0.337 µM; with OVCAR-5 ovarian, over 100 µM; in the assay on HL-60(TB) leukemia it was 0.6 µM. Besides, the TGI in the assay on HS 578T breast, in the assay with SF-295 CNS, with CCRF-CEM leukemia and in the assay with HCT-116 colon was over 100 µM throughout.
